This is an account of results in US6787525B1, “Glyceryl nucleotides, method for the production thereof and their use” (priority 1998, dated 2004).

The subject of series [1] is HCC-2998. Nature of the series: In vitro cytostatic effect (SRB): HCC-2998, Intestinal cancer.
The subject of series [2] is UO-31. The experiment in a line: In vitro cytostatic effect (SRB): UO-31, Kidney cancer.
For series [3], the system named is A498. The experiment in a line: In vitro cytostatic effect (SRB): A498, Kidney cancer.
The mark [4] stands for this setting: read-out: LC50, 48-hour incubation.

As for `CCCCCCCCCCCCCCCCCCOC(COP(=O)(O)OCC1OC(n2cc(F)c(=O)[nH]c2=O)CC1O)COP(=O)(O)OCC1OC(n2ccc(N)nc2=O)C(O)C1O` (racemic) [NSC 698688-A/1, arabinocytidylyl-(5′→1)-2-O-octadecyl-rac-glycerylyl-(3→5′)-5-fluoro-2′-deoxyuridine], the 50% growth inhibitory concentration (GI50) (as a rule, the concentration that inhibits growth by half) in series [1] (48-hour incubation) came out at 0.0588 µM; in series [2] (48-hour incubation) it was 21.3 µM; in series [3] (48-hour incubation) it was 0.319 µM. For the same molecule, the figures for the TGI in series [1] (48-hour incubation), in series [2] (48-hour incubation) and in series [3] (48-hour incubation) were 3.50E − 05 mol/l, over 1.00E − 04 mol/l and over 1.00E − 04 mol/l, respectively. Also, the CC50 in series [1] (setting [4]), in series [2] (setting [4]) and in series [3] (setting [4]) was over 100 µM throughout.
